Entries after “also recorded” stand apart in the source; their conditions may differ. A value given as a limit tells only on which side of the number the result lay.

Results on two compounds are retold here after patent US7786042B2, “Fluridone as an anti-inflammatory agent” (Universita' Degli Studi Di Genova, priority 2005, dated 2010).

Data set [1] concerns human granulocytes and lymphocytes. Nature of the data set: ABA content in stimulated human granulocytes and lymphocytes (immunoassay for ABA). The format is cell-based. As to conditions: fluridone 10-50 μM. On the procedure:
The increase of the intracellular ABA concentration induced by f-MLP in granulocytes and by PMA in lymphocytes is inhibited by the addition of fluridone at micromolar concentrations (ranging between 10 and 50 μM) during cell incubation with the pro-inflammatory stimuli.

For the next data set, the system named is whole blood cells. The data set can be described thus: LPS-induced histamine release from blood cells. The format is cell-based, human. The conditions noted are these: pre-incubation with 50 μM fluridone. The procedure: Whole blood was pre-incubated for 2 hours at 25° C. in the absence (control) or in the presence of 50 μM fluridone. Then, 100 ng/ml of lipopolysaccharide (LPS) was added to the blood at 37° C. for the time indicated. The histamine concentration in plasma was measured immunoenzymatically with a commercially available kit (IBL-Hamburg, Germany). The results are the mean ±SD from 3 experiments.

In data set [2] the test system is human lymphocytes and monocytes. Nature of the data set: Cell viability by Trypan blue exclusion, human cells. In kind it is cell-based. The conditions noted are these: fluridone 50 μM. The procedure:
Inhibition of proliferation is not due to fluridone toxicity since the percentage of viable cells (excluding the dye Trypan blue) was similar in the cultures incubated with fluridone compared to controls.
A similar effect (90% inhibition) is produced by fluridone also on the LPS-induced TNF-α production in both cell types (FIGS. 7 A and B). In all these cases, no toxicity of fluridone on the cells was observed, as evaluated by the ability of excluding the dye Trypan blue.

The next data set concerns rats. The conditions noted are these: oral administration; cited from earlier work.
Data set [3] deals with laboratory animals (mice, rats, dogs, fish and birds). The conditions noted are these: even at high concentrations; cited from earlier work.
The conditions of data set [4]: cited from earlier work.
Data set [5] deals with human granulocytes. The data set can be described thus: GDP-ribosyl cyclase activity in granulocytes. The format is cell-based. The conditions noted are these: ABA 0.2 to 200 μM; detectable after 5 min. The procedure: (§1) Panel A. GDP-ribosyl cyclase activity has been measured in granulocytes in the presence of increasing ABA concentrations, added together with the cyclase substrate NGD^+. The results are expressed as cyclase activity relative to control cells, incubated in the absence of ABA (mean ±SD from 5 determinations). Panel B. The intracellular concentration of cADPR was measured by enzymatic cycling assay (Materials and Methods) on granulcoytes incubated with 20 μM ABA for the periods of time indicated. The results are expressed as [cADPR]i relative to control cells, incubated without ABA (n=2).
Granulocytes were resuspended in HBSS (60×10^6/ml) and cyclase activity was measured by adding the substrate NGD^+ (a NAD^+ analogue, which product cGDPR is fluorescent) at the concentration of 0.2 mM together with increasing concentrations of ABA. At various times (0, 5, 15, 60 and 120 min) 100 μl-aliquots were withdrawn and centrifuged (5,000×g for 15 s) and supernatants were deproteinized with 2.5% (v/v) trichloroacetic acid. The cGDPR content was estimated by HPLC analysis, as described in (Guida, FEBS 1995).

The subject of data set [6] is human granulocytes. Nature of the data set: Intracellular cADPR content in granulocytes (enzymatic cycling assay). In kind it is cell-based. As to conditions: ABA 20 μM. The procedure:
as §1
The assays to determine the intracellular cADPR concentration ([cADPR]i) in granulocytes are known to the expert in the field. Granulocytes (40×10^6/ml in RPMI 1640) were incubated in the presence of 20 μM ABA and at various times 500 μl-aliquots were withdrawn and centrifuged (5,000×g for 15 s) to recover the cell pellets. Determination of the [cADPR]i was performed on perchloric acid cell extracts by an enzymatic cycling assay, as described in (Graeff, Biochem. J. 2002).

The subject of data set [7] is human granulocytes. The data set can be described thus: Intracellular calcium [Ca2+]i in granulocytes. As to conditions: 10 min after addition of 10 μM ABA; basal value 50±2 nM; n=4. The format is cell-based. On the procedure:
Granlocytes were isolated by density gradient centrifugation from the peripheral blood of healthy donors, after informed consent. Contaminating erythrocytes were removed by hypotonic lysis. […] The increase of [cADPR]i in turn induces a progressive rise of [Ca^2+]i, from a basal value of 50±2 nM to 170±25 nM after 10 min from the addition of 10 μM ABA (n=4). […] The increase of the [Ca^2+]i induced by ABA in granulocytes is in turn responsible for activation of several functional activities typical of these cells. The functional effects induced by ABA (at concentrations ranging between 0.2 and 20 μM) in granulocytes include stimulation of the production of reactive oxygen species (ROS), measured through the cytochrome c […] (FIG. 2A), and of nitric oxide (NO), measured as accumulation of nitrite, the end-product of NO […] (FIG. 2B).

The test system of data set [8] is human granulocytes. Nature of the data set: ROS production by granulocytes (cytochrome c assay). In kind it is cell-based. As to conditions: ABA 0.2-20 μM.
Protocol: Granulocytes were resuspended at 5×10^6/ml in HBSS and 225 μl of the cell suspension were added to 50 μl of 0.2 mM cytochrome c and were incubated for 30 min at 37° C. in the absence (control) or in the presence of 250 nM or 20 μM ABA, the latter concentration without or with 1 mM EDTA, 20 mM nicotinamide or 0.1 mM 8-Br-cADPR. The amount of ROS (panel A) or of NO (panel B) in the cell supernatant was measured as described in Materials and Methods. The results are expressed as the production relative to control cells, not stimulated with ABA, and are the mean ±SD from 5 experiments.
Release of superoxide (O2^−) by human granulocytes was quantified by a spectrophotometric assay of cytochrome c reduction (Cohen, J Clin Invest 1978). Granulocytes were resuspended in HBSS (at 5×10^6 cells/ml) and 225 μl of the cell suspension was incubated for 30 min at 37° C. with 50 μl cytochrome c (0.2 mM) in the absence (control) or in the presence of ABA at different concentrations. Then, cells were centrifuged at 5,000×g for 15 s and the absorbance of the supernatants was recorded at 550 nm (λmax for reduced cytocrome c).
Data set [9] relates to human granulocytes. Nature of the data set: Chemotaxis and chemokinesis of granulocytes. In kind it is cell-based. The conditions noted are these: ABA 0.2-20 μM.
Data set [10] has as its system murine macrophages RAW 264.7. The data set can be described thus: COX-2 expression in LPS-stimulated RAW 264.7. The format is cell-based. The conditions noted are these: exogenous ABA 10-20 μM added to fluridone-treated cultures. On the procedure:
Murine macrophages from the RAW 264.7 cell line were stimulated with 10 μM ABA or with 100 ng/ml lipopolysaccharide (LPS) for 6 hours, after pre-incubation with 50 μM fluridone for 3 hours.

The subject of data set [11] is murine microglia cell line N9. The data set can be described thus: Chemokinesis of murine microglia N9. The format is cell-based. The conditions noted are these: ABA 0.2-20 μM. The procedure: Assays were performed using 96-well ChemoTx system microplates with a 3-μm pore size polycarbonate filter (NeuroProbe Inc., Gaithersburg, USA). Cells (granulocytes or murine microglia) were resuspended at 10^7/ml in HBSS, PBS and 5% albumin, 39:16:1 (chemotaxis buffer, CB). In order to evaluate the chemoattractant effect of ABA, hormone concentrations ranging from 50 nM to 20 μM were added in CB in the bottom wells and 25 μl cell suspensions were placed on top of the filter. To evaluate a possible stimulatory effect of ABA on spontaneous cell movements (chemokinesis), cells were pre-incubated with or without 20 μM ABA, then washed and placed on top of the filter, in contact with CB. Plates were incubated at 37° C. for 60 min and transmigrated cells were recovered and quantified by fluorimetric assay with Cytox Green. The number of transmigrated cells was calculated by comparison of the measured fluorescence with that of a standard curve, obtained by directly placing a serial dilution of cells in the bottom wells. The results of the chemotaxis experiments are expressed as “chemotaxis index” (CI): CI=number of cells migrated towards chemoattractant/number of cells migrated towards CB
The results of the chemokinesis experiments are expressed as number of ABA pre-treated cells migrated through the filter compared to control cells (not treated with ABA).

Regarding `Cn1cc(-c2ccccc2)c(=O)c(-c2cccc(C(F)(F)F)c2)c1` [Fluridone, 1-methyl-3-phenyl-5-(α,α,α-trifluoro-m-tolyl)-4-pyridone], the “inhibition of the increase of intracellular ABA concentration” value is recorded as 40% in [1] (granulocytes, f-MLP-induced) and 50% in data set [1] (lymphocytes, PMA-induced). The “histamine release by LPS-stimulated (unfractionated) blood cells” value in the data set on whole blood cells is given as “completely inhibits”. The “toxicity on the cells (Trypan blue exclusion)” value in data set [2] (human monocytes) was “no toxicity”. In [2] (lymphocyte cultures), the “percentage of viable cells (excluding Trypan blue) compared to controls” value is given as “similar”. The LD50 with rats is greater than 10 g/kg. The “toxic, mutagenic, teratogenic or cancerogenic effects” value in data set [3] is given as “absence of toxic, mutagenic, teratogenic or cancerogenic effects”. Moreover, the “maximum permissible intake allowed in humans” value in [4] (from chronic toxicity in rats fed with fluridone, dose reduction of two logarithms) is 4.8 mg/kg/day. The “ADI (acceptable daily intake)” value in data set [4] (humans) is recorded as 0.08 mg/Kg/die.

As for `CC1=CC(=O)CC(C)(C)[C@@]1(O)/C=C/C(C)=C\C(=O)O` (racemic) [ABA, (±)-cis, trans ABA], the GDP-ribosyl cyclase activity result in the data set with human granulocytes [5] is recorded as “dose-dependent stimulation”. For the same compound, the “intracellular cADPR concentration ([cADPR]i)” value in the data set with human granulocytes [6] was “increase”. Further, the “[Ca2+]i” value in the data set on human granulocytes [7] was found to be 170 ± 25 nM. Further, the “production of reactive oxygen species (ROS)” value in the data set with human granulocytes [8] is “stimulation; also recorded: ↑ROS release”. Further, in the data set with human granulocytes [9], the chemokinesis entry is “significant increase; also recorded: ↑chemokinesis” and the “chemotaxis (chemoattractant effect)” value was “behaves as a chemoattractant; also recorded: ↑chemotaxis”. Also, the “increase of COX-2 expression compromised by fluridone” value in [10] is “partly restores”. Besides, the chemokinesis result in data set [11] is “increase; also recorded: ↑chemokinesis”.
